Test results taken from patent US20240217983A1, “GPR119 AGONISTS” (Kallyope, Inc., priority 2021, published 2024).

Biological target: T1, human GPR119 (hGPR119) (Homo sapiens, UniProt Q8TDV5)
T1 construct: expressed in transfected cells
T1 sequence (Q8TDV5 1-335): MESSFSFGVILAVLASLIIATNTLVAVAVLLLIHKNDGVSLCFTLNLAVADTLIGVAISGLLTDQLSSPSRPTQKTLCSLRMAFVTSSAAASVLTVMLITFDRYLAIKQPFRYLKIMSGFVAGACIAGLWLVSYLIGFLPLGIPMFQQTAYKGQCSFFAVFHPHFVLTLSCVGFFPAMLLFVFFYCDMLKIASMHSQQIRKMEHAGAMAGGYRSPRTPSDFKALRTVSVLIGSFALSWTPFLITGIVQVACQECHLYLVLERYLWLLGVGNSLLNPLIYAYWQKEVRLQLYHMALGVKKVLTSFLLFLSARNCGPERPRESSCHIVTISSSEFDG
Assay: cAMP accumulation assay (Cisbio cAMP Gs dynamic HTRF kit) in CHO-K1 cells stably expressing human GPR119
Assay type: cell-based
Settings: 4-parameter fit; for Emax: 1 h, % activity normalized to Max and Min controls; for EC50: 60 minutes at 37° C.
Summary of the method: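 Read-out is HTRF 665/620 nm ratio after 1 h detection at ambient temperature, converted to % activity against positive and negative controls, EC50 and Max activity by 4-parameter fit. Compounds were titrated onto ~10,000 thawed hGPR119-CHO-K1 cells/well for 60 min at 37° C/5% CO2.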

**Q.** For O=C(Cc1ccc(OCCCC2CCN(c3ncc(Cl)cn3)CC2)cc1F)N1CCC2(CCCN2C[C@H](O)[C@H](O)[C@H](O)CO)C1 (stereo partly drawn) [Example 74, 2-(4-(3-(1-(5-chloropyrimidin-2-yl)piperidin-4-yl)propoxy)-2-fluorophenyl)-1-(1-((2S,3S,4R)-2,3,4,5-tetrahydroxypentyl)-1,7-diazaspiro[4.4]nonan-7-yl)ethan-1-one], which Emax is on record?
**A.** ≥ 130%

**Q.** And the EC50?
**A.** ≤ 100 nM

**Q.** O=C(Cc1ccc(OCCCC2CCN(c3ncc(Cl)cn3)CC2)cn1)N1CCN(C[C@H](O)[C@@H](O)[C@H](O)[C@H](O)CO)CC1 [Example 88, 2-(5-(3-(1-(5-chloropyrimidin-2-yl)piperidin-4-yl)propoxy)pyridin-2-yl)-1-(4-((2S,3R,4R,5R)-2,3,4,5,6-pentahydroxyhexyl)piperazin-1-yl)ethan-1-one] was tested. Which Emax did it give?
**A.** 100 to 130%

**Q.** And the EC50?
**A.** > 10000 nM

**Q.** O=C(Cc1ccc(OCCCC2CCN(c3ncc(Cl)cn3)CC2)cc1F)N1CC2CC(C1)N2C[C@H](O)[C@@H](O)[C@H](O)[C@H](O)CO [Example 49, 2-(4-(3-(1-(5-chloropyrimidin-2-yl)piperidin-4-yl)propoxy)-2-fluorophenyl)-1-(6-((2S,3R,4R,5R)-2,3,4,5,6-pentahydroxyhexyl)-3,6-diazabicyclo[3.1.1]heptan-3-yl)ethan-1-one] was tested. Which Emax did it give?
**A.** 100 to 130%

**Q.** And the EC50?
**A.** ≤ 100 nM

**Q.** For O=C(CCCCS(=O)(=O)O)N1C[C@@H]2C[C@H]1CN2C(=O)Cc1ccc(OCCCC2CCN(c3ncc(Cl)cn3)CC2)cc1F [Example 15, 5-((1S,4S)-5-(2-(4-(3-(1-(5-chloropyrimidin-2-yl)piperidin-4-yl)propoxy)-2-fluorophenyl)acetyl)-2,5-diazabicyclo[2.2.1]heptan-2-yl)-5-oxopentane-1-sulfonic acid], which Emax is on record?
**A.** 100 to 130%

**Q.** And the EC50?
**A.** ≤ 100 nM

**Q.** How did the Emax turn out when O=C(Cc1ccc(OCCCC2CCN(c3ncc(Cl)cn3)CC2)cc1F)N1CCOC2(CCN(C[C@H](O)[C@H](O)[C@H](O)CO)C2)C1 (stereo partly drawn) [Example 80, 2-(4-(3-(1-(5-chloropyrimidin-2-yl)piperidin-4-yl)propoxy)-2-fluorophenyl)-1-(2-((2S,3S,4R)-2,3,4,5-tetrahydroxypentyl)-6-oxa-2,9-diazaspiro[4.5]decan-9-yl)ethan-1-one] was run?
**A.** 100 to 130%

**Q.** What about the EC50 of the same compound?
**A.** ≤ 100 nM

**Q.** How did the Emax turn out when O=C(Cc1ccc(OCCCC2CCN(c3ncc(Cl)cn3)CC2)cc1F)N1CCC2(CCN2C[C@H](O)[C@@H](O)[C@H](O)[C@H](O)CO)C1 (stereo partly drawn) [Example 31, 2-(4-(3-(1-(5-chloropyrimidin-2-yl)piperidin-4-yl)propoxy)-2-fluorophenyl)-1-(1-((2S,3R,4R,5R)-2,3,4,5,6-pentahydroxyhexyl)-1,6-diazaspiro[3.4]octan-6-yl)ethan-1-one] was run?
**A.** 100 to 130%

**Q.** What about the EC50 of the same compound?
**A.** ≤ 100 nM

**Q.** For O=C(Cc1ccc(OCCCC2CCN(c3ncc(Cl)cn3)CC2)cc1F)N1C2CC1CN(C[C@H](O)[C@H](O)[C@H](O)CO)C2 [Example 56, 2-(4-(3-(1-(5-chloropyrimidin-2-yl)piperidin-4-yl)propoxy)-2-fluorophenyl)-1-(3-((2S,3S,4R)-2,3,4,5-tetrahydroxypentyl)-3,6-diazabicyclo[3.1.1]heptan-6-yl)ethan-1-one], which Emax is on record?
**A.** 100 to 130%

**Q.** And the EC50?
**A.** ≤ 100 nM

**Q.** What does the source list for O=C(Cc1ccc(OCCCC2CCN(c3ncc(Cl)cn3)CC2)cc1F)N1CCN(C[C@H](O)[C@@H](O)[C@H](O)[C@H](O)CO)C2CC21 (stereo partly drawn) [Example 59, 2-(4-(3-(1-(5-chloropyrimidin-2-yl)piperidin-4-yl)propoxy)-2-fluorophenyl)-1-(5-((2S,3R,4R,5R)-2,3,4,5,6-pentahydroxyhexyl)-2,5-diazabicyclo[4.1.0]heptan-2-yl)ethan-1-one]?
**A.** Emax: 100 to 130%; EC50: ≤ 100 nM

**Q.** With O=C(Cc1ccc(OCCCC2CCN(c3ncc(Cl)cn3)CC2)cc1F)N1CC2CCC1CN2C[C@H](O)[C@@H](O)[C@H](O)[C@H](O)CO (stereo partly drawn) [Example 53, 2-(4-(3-(1-(5-chloropyrimidin-2-yl)piperidin-4-yl)propoxy)-2-fluorophenyl)-1-(5-((2S,3R,4R,5R)-2,3,4,5,6-pentahydroxyhexyl)-2,5-diazabicyclo[2.2.2]octan-2-yl)ethan-1-one] as the compound, how does the Emax read?
**A.** 100 to 130%

**Q.** What about the EC50 of the same compound?
**A.** ≤ 100 nM

**Q.** For O=C(CCCCS(=O)(=O)O)N1C[C@H]2CN(C(=O)Cc3ccc(OCCCC4CCN(c5ncc(Cl)cn5)CC4)cc3F)[C@H]2C1 [Example 8, 5-((1S,5R)-6-(2-(4-(3-(1-(5-chloropyrimidin-2-yl)piperidin-4-yl)propoxy)-2-fluorophenyl)acetyl)-3,6-diazabicyclo[3.2.0]heptan-3-yl)-5-oxopentane-1-sulfonic acid], which Emax is on record?
**A.** 100 to 130%

**Q.** What about the EC50 of the same compound?
**A.** ≤ 100 nM

**Q.** With O=C(Cc1ccc(OCCCC2CCN(c3ncc(Cl)cn3)CC2)cc1F)N1C[C@@H]2CN(C[C@H](O)[C@H](O)[C@H](O)CO)C[C@@H]21 [Example 38, 2-(4-(3-(1-(5-chloropyrimidin-2-yl)piperidin-4-yl)propoxy)-2-fluorophenyl)-1-((1S,5R)-3-((2S,3S,4R)-2,3,4,5-tetrahydroxypentyl)-3,6-diazabicyclo[3.2.0]heptan-6-yl)ethan-1-one] as the compound, how does the Emax read?
**A.** 100 to 130%

**Q.** And the EC50?
**A.** ≤ 100 nM

**Q.** O=C(Cc1ccc(OCCCC2CCN(C(=O)OC3(C(F)(F)F)COC3)CC2)cc1F)N1CCN(C[C@H](O)[C@@H](O)[C@H](O)[C@H](O)CO)CC1 [Example 105, 3-(trifluoromethyl)oxetan-3-yl 4-(3-(3-fluoro-4-(2-oxo-2-(4-((2S,3R,4R,5R)-2,3,4,5,6-pentahydroxyhexyl)piperazin-1-yl)ethyl)phenoxy)propyl)piperidine-1-carboxylate] was tested. Which Emax did it give?
**A.** 100 to 130%

**Q.** What about the EC50 of the same compound?
**A.** 100 to 1000 nM

**Q.** How did the Emax turn out when O=C(Cc1ccc(OCCCC2CCN(c3ncc(Cl)cn3)CC2)cc1F)N1CCC2(CN(C[C@H](O)[C@H](O)[C@H](O)CO)C2)C1 [Example 28, 2-(4-(3-(1-(5-chloropyrimidin-2-yl)piperidin-4-yl)propoxy)-2-fluorophenyl)-1-(2-((2S,3S,4R)-2,3,4,5-tetrahydroxypentyl)-2,6-diazaspiro[3.4]octan-6-yl)ethan-1-one] was run?
**A.** 100 to 130%

**Q.** What about the EC50 of the same compound?
**A.** ≤ 100 nM

**Q.** What does the source list for O=C(CCCCS(=O)(=O)O)N1CC2CC(C1)N2C(=O)Cc1ccc(OCCCC2CCN(c3ncc(Cl)cn3)CC2)cc1F [Example 16, 5-(6-(2-(4-(3-(1-(5-chloropyrimidin-2-yl)piperidin-4-yl)propoxy)-2-fluorophenyl)acetyl)-3,6-diazabicyclo[3.1.1]heptan-3-yl)-5-oxopentane-1-sulfonic acid]?
**A.** Emax: 100 to 130%; EC50: ≤ 100 nM

**Q.** How did the Emax turn out when O=C(Cc1ccc(OCCCC2CCN(c3ncc(Cl)cn3)CC2)cc1F)N1C[C@H]2CN(C[C@H](O)[C@H](O)[C@H](O)CO)[C@H]2C1 [Example 36, 2-(4-(3-(1-(5-chloropyrimidin-2-yl)piperidin-4-yl)propoxy)-2-fluorophenyl)-1-((1R,5R)-6-((2S,3S,4R)-2,3,4,5-tetrahydroxypentyl)-3,6-diazabicyclo[3.2.0]heptan-3-yl)ethan-1-one] was run?
**A.** 100 to 130%

**Q.** And the EC50?
**A.** 100 to 1000 nM

**Q.** With O=C(Cc1ccc(OCCCC2CCN(c3ncc(Cl)cn3)CC2)cc1F)N1CCN(C[C@H](O)[C@H](O)[C@H](O)CO)CC1 [Example 71, 2-(4-(3-(1-(5-chloropyrimidin-2-yl)piperidin-4-yl)propoxy)-2-fluorophenyl)-1-(4-((2S,3S,4R)-2,3,4,5-tetrahydroxypentyl)piperazin-1-yl)ethan-1-one] as the compound, how does the Emax read?
**A.** 100 to 130%

**Q.** And the EC50?
**A.** ≤ 100 nM

**Q.** CC(C)OC(=O)N1CCC(CCCOc2ccc(CC(=O)N3CCN(C[C@H](O)[C@@H](O)[C@H](O)[C@H](O)CO)CC3)c(F)c2)CC1 [Example 104, isopropyl 4-(3-(3-fluoro-4-(2-oxo-2-(4-((2S,3R,4R,5R)-2,3,4,5,6-pentahydroxyhexyl)piperazin-1-yl)ethyl)phenoxy)propyl)piperidine-1-carboxylate] was tested. Which Emax did it give?
**A.** 100 to 130%

**Q.** What about the EC50 of the same compound?
**A.** 100 to 1000 nM

**Q.** Which Emax does the source give for O=C(Cc1ccc(OCCCC2CCN(c3ncc(Cl)cn3)CC2)cc1F)N1C[C@H]2CCN(C[C@H](O)[C@@H](O)[C@H](O)[C@H](O)CO)[C@H]2C1 [Example 65, 2-(4-(3-(1-(5-chloropyrimidin-2-yl)piperidin-4-yl)propoxy)-2-fluorophenyl)-1-((3aR,6aR)-1-((2S,3R,4R,5R)-2,3,4,5,6-pentahydroxyhexyl)hexahydropyrrolo[3,4-b]pyrrol-5(1H)-yl)ethan-1-one] here?
**A.** 100 to 130%

**Q.** And the EC50?
**A.** ≤ 100 nM

**Q.** O=C(CCCCS(=O)(=O)O)N1CCC2(CCN(C(=O)Cc3ccc(OCCCC4CCN(c5ncc(Cl)cn5)CC4)cc3F)C2)C1 (stereo not drawn) [Example 1, 5-(7-(2-(4-(3-(1-(5-chloropyrimidin-2-yl)piperidin-4-yl)propoxy)-2-fluorophenyl)acetyl)-2,7-diazaspiro[4.4]nonan-2-yl)-5-oxopentane-1-sulfonic acid] was tested. Which Emax did it give?
**A.** 100 to 130%

**Q.** What about the EC50 of the same compound?
**A.** ≤ 100 nM

**Q.** With O=C(Cc1ccc(OCCCC2CCN(c3ncc(Cl)cn3)CC2)cc1F)N1CCN(C[C@H](O)[C@H](O)[C@H](O)CO)C2CC21 (stereo partly drawn) [Example 58, 2-(4-(3-(1-(5-chloropyrimidin-2-yl)piperidin-4-yl)propoxy)-2-fluorophenyl)-1-(5-((2S,3S,4R)-2,3,4,5-tetrahydroxypentyl)-2,5-diazabicyclo[4.1.0]heptan-2-yl)ethan-1-one] as the compound, how does the Emax read?
**A.** 100 to 130%

**Q.** What about the EC50 of the same compound?
**A.** ≤ 100 nM

**Q.** Which Emax does the source give for O=C(Cc1ccc(OCCCC2CCN(c3ncc(Cl)cn3)CC2)cc1F)N1CCC2(CC1)CCN2C[C@H](O)[C@H](O)[C@H](O)CO [Example 67, 2-(4-(3-(1-(5-chloropyrimidin-2-yl)piperidin-4-yl)propoxy)-2-fluorophenyl)-1-(1-((2S,3S,4R)-2,3,4,5-tetrahydroxypentyl)-1,7-diazaspiro[3.5]nonan-7-yl)ethan-1-one] here?
**A.** 100 to 130%

**Q.** And the EC50?
**A.** ≤ 100 nM
